Test results as given in patent US7767417B2, “Prenyl-electrostatic switch, and methods of use” (New York University, priority 2004, dated 2010).

Tests used:
GFP-K-Ras = test: Live-cell imaging of GFP-K-Ras translocation from plasma membrane to internal membranes; format: cell-based, human; conditions: for effect of inhibitor pretreatment on stimulated K-Ras translocation: 100 nM Ro 31-8220 or 15 μg/ml W-13, 10 min prior to stimulation with bryostatin-1 or PMA+Iono
Method: COS-1, HeLa, and MDCK cells were maintained in 5% CO2 in Dulbecco's Modified Eagle Medium (“DMEM”) supplemented with 4 mM 1-glutamine, 1.5 g/L sodium bicarbonate, 4.5 g/L glucose, and 10% fetal bovine serum (“FBS”) (Cellgro®). MDCK cells stably expressing GFP-K-Ras or GFP-H-Ras were selected in G418 and sorted by FACS to yield cell lines expressing relatively low levels of the fluorescent Ras proteins (1-3 fold endogenous by immunoblots). NIH 3T3 cells were maintained in 10% CO2 in DMEM supplemented with 4 mM 1-glutamine, 1.5 g/L sodium bicarbonate, 4.5 g/L glucose, and 10% calf serum (Colorado Serum Co., Denver, Colo.). Jurkat T cells were maintained in 5% CO2 in RPMI containing 10% FBS. Cells to be examined by fluorescence microscopy were seeded at 2×10^5 per plate into 35 mm dishes containing a glass coverslip-sealed 15 mm cutout (MatTek, Ashland, Mass.) and transfected the next day using Lipofectamine (Invitrogen, Carlsbad, Calif.; NIH 3T3), Lipofectamine 2000 (Invitrogen, Carlsbad, Calif.; COS-1, HeLa, MDCK), or DMRIE (Invitrogen, Carlsbad, Calif.; Jurkat), according to the manufacturers' instructions. To ensure co-transfection of untagged cDNAs and fluorescent constructs, a DNA ratio of at least 5:1 (untagged:fluorescent) was used.
(§1) Cells were stimulated while under continuous observation by adding 100 nM bryostatin-1 (Biomol), 100 nM PMA with or without 500 ng/ml lonomycin, or 5 ng/ml anti-CD3 to 35 mm MatTek plates maintained at 37° C. using a PDMI-2 microincubator (Harvard Apparatus, Holliston, Mass.). Treatment of cells with 100 nM Ro 31-8220 (Biomol, Plymouth Meeting, Pa.) or 15 μg/ml W-13 Hydrochloride (EMD Biosciences, San Diego, Calif.) was initiated 10 min prior to stimulations. Where indicated, 25 pM MitoTracker Red CMXRos (Molecular Probes, Eugene, Oreg.) was added 10 min prior to stimulation. Living cells were imaged with a Zeiss 510 inverted laser scanning confocal microscope (“LSM”). A minimum of five […] Z slices were acquired for each cell at each time point and representative images were chosen to display both plasma membrane and endomembranes. Fluorescence resonance energy transfer (“FRET”) on mitochondria between CFP-K-Ras and YFP-Bcl-XL was detected by bleaching the acceptor (YFP-Bcl-XL) on individual mitochondria and measuring the increase in CFP emission intensity as quenching was released. FRET efficiency was calculated as [ICFP(post-bleach)−ICFP(pre-bleach)]/ICFP(post-bleach). TIFF images were processed with Adobe Photoshop 7.0.

K-Ras12V and Bcl-XL = test: Colocalization and FRET between K-Ras12V and Bcl-XL on mitochondria; format: cell-based, human
Method: as §1

endogenous Ras = test: Anti-Ras immunogold electron microscopy of Jurkat T cells; format: cell-based
Method: Jurkat cells (in suspension) were treated with 100 nM bryostatin-1 or vehicle (dimethyl sulfoxide (“DMSO”)) for 30 minutes at 37° C. and then fixed with 2% formaldehyde and 0.2% glutaraldehyde in 0.1 M sodium phosphate buffer, pH 7.4. After washing in buffer, the cells were pelleted by centrifugation, embedded in 10% gelatin, cooled in ice, and cut into 1-mm^3 blocks in the cold room. The blocks were infused with 2.3 M sucrose at 4° C. for at least 2 hours, frozen in liquid nitrogen, and stored until cryo-ultramicrotomy. 100-nm-thick section were cut at −120° C. using an Ultracut T/FCS (Leica) equipped with an antistatic device (Diatome) and a diamond knife (Drukker). Ultrathin sections were picked up in a mix of 1.8% methylcellulose and 2.3 M sucrose (1:1) (Liou et al., “Improving Structural Integrity of Cryosections for Immunogold Labeling,” Histochemistry and Cell Biology 106:41-58 (1996), which is hereby incorporated by reference in its entirety). Cryosections were collected on formvar-coated copper grids and incubated with Ras10 monoclonal antibody (Upstate, Charlottesville, Va.) followed by rabbit anti-mouse antibodies and then protein A gold (Slot et al., “A New Method of Preparing Gold Probes for Multiple-Labeling Cytochemistry,” Eur. J. Cell. Biol. 38:87-93 (1985), which is hereby incorporated by reference in its entirety). After labeling, the sections were treated with 1% glutaraldehyde, counterstained with uranyl acetate, and embedded in methyl cellulose-uranyl acetate (Slot et al., “Immuno-Localization of the Insulin Regulatable Glucose Transporter in Brown Adipose Tissue of the Rat,” J. Cell. Biol. 113:123-135 (1991), which is hereby incorporated by reference in its entirety). Images were acquired with a JEOL electron microscope JEM-1200 EX II at 80 kV.

[1] = system: NIH3T3 cells transformed with K-Ras12V or K-Ras12V181A; test: Apoptosis of K-Ras transformed fibroblasts; format: cell-based
Excerpt: To confirm that K-Ras12V phosphorylated on S181, like phosphomimetic K-Ras12V181E, is pro-apoptotic, the capacity of PKC agonists to induce apoptosis of K-Ras transformed fibroblasts was examined. […] Thus, the sensitization to PKC-mediated apoptosis afforded by K-Ras transformation can be attributed to phosphorylation at S181.

K-Ras = test: Metabolic labeling with [32P]orthophosphate of COS-1 cells expressing K-Ras constructs; format: cell-based, human; conditions: 100 nM bryostatin-1 for 20 min
Method: Twenty-four hours after transfection with various K-Ras constructs, COS-1 cells were pre-incubated at 37° C. for 4 hours in phosphate-free DMEM containing 10% dialyzed fetal calf serum (“FCS”). The medium was then replaced with phosphate-free DMEM containing 2 mCi of [^32P]orthophosphate. After 6 hours of labeling, the cells were stimulated with 100 nM bryostatin-1 for 20 min at 37° C. Jurkat cells were rinsed three times with prewarmed phosphate-free DMEM, and then incubated at 37° C. for 6 hours in phosphate-free DMEM containing 10% FBS (3:1 undialyzed:dialyzed) and 0.5 mCi/ml [^32P]orthophosphate. After incubation, the ^32P-labeled cells were rinsed with prewarmed phosphate-free DMEM, and then stimulated with either anti-CD3 (10 μg/ml) or vehicle control for 30 min at 37° C. Both types of cells were then lysed in RIPA buffer containing protease inhibitors (Roche, Basel, Switzerland) and 10 μM microcystin and 5 mM NaF. K-Ras was immunoprecipitated using agarose conjugated with Y13-259 monoclonal anti-Ras antibody (Santa Cruz Biotechnology, Inc., Santa Cruz, Calif.), analyzed by SDS-PAGE and visualized by phosphorimager.

a variety of tumors = conditions: phase I and II trials, cited from earlier work
[2] = system: NIH 3T3 cells stably transfected with K-Ras12V or K-Ras12V181A; test: Soft agar assay; format: cell-based; conditions: two weeks
Method: NIH 3T3 cells stably transfected with pCGN-hyg, or the same vector encoding K-Ras12V or K-Ras12V 181 A were plated as single cell suspensions (2×10^4 cells/35-mm well) in 0.4% agar over a bottom layer of 0.6% agar, both containing DMSO vehicle or various concentrations of bryostatin-1. After two weeks, the percentage of plated cells that formed colonies (>5 cell diameters across) was determined.

[3] = system: K-Ras12V-dependent tumors; test: Tumor growth assay in nude mice; format: in vivo, athymic nude BALB/c mice; conditions: intraperitoneal 25 μg/kg daily for 3 days
Method: NIH 3T3 cells stably transfected as per the soft agar assays were injected (5×10^5 cells) subcutaneously into the flanks of 4-6 week old athymic nude BALB/c mice. After formation of palpable tumors, mice were treated daily for 3 days with intraperitoneal DMSO vehicle or bryostatin-1 (25 μg/kg). Tumor volume was measured daily and differences in growth rates were evaluated for statistical significance by ANOVA.

[4] = 100 nM bryostatin-1, living cells

Cn1cc(C2=C(c3cn(CCCSC(=N)N)c4ccccc34)C(=O)NC2=O)c2ccccc21 [Ro 31-8220]
effect of inhibitor pretreatment on stimulated K-Ras translocation (GFP-K-Ras): completely blocked

NCCCCNS(=O)(=O)c1ccc2c(Cl)cccc2c1 [W-13]
effect of inhibitor pretreatment on stimulated K-Ras translocation (GFP-K-Ras): had no effect

CCC/C=C/C=C/C(=O)O[C@H]1/C(=C/C(=O)OC)C[C@H]2C[C@H]([C@@H](C)O)OC(=O)C[C@H](O)C[C@@H]3C[C@H](OC(C)=O)C(C)(C)[C@](O)(C[C@@H]4C/C(=C/C(=O)OC)C[C@H](/C=C/C(C)(C)[C@]1(O)O2)O4)O3 [bryostatin-1]
FRET efficiency between YFP-K-Ras12V and CFP-Bcl-XL on treated mitochondria (K-Ras12V and Bcl-XL; Cos-1 cell, 5 min after bryostatin-1): 17±8%
colocalization of CFP-K-Ras12V with YFP-Bcl-XL on outer mitochondrial membrane (K-Ras12V and Bcl-XL; after stimulation with PKC agonist): colocalized with YFP-Bcl-XL
10 nm gold particles per area of cytoplasm (excluding plasma membrane) (endogenous Ras; 100 nM bryostatin-1 30 min, untreated 6.4±0.5): 31.0±1.1 gold particles/μm^2
gold particles associated with mitochondria (endogenous Ras; bryostatin-1 treated): 49%
mitochondria associated gold particles located within 30 nm of the outer mitochondrial membrane (endogenous Ras; bryostatin-1 treated): 81%
induction of apoptosis in K-Ras12V versus K-Ras12V181A transformed cells [1]: induced apoptosis to a much higher extent in cells transformed with K-Ras12V than those transformed with K-Ras12V181A
onset of translocation of GFP-K-Ras from the plasma membrane to intracellular membranes (GFP-K-Ras; [4]): < 1 min
time to maximal translocation of GFP-K-Ras from the plasma membrane to intracellular membranes (GFP-K-Ras; [4]): 3 min
reversibility of effect on K-Ras localization (GFP-K-Ras; COS-1 cells, GFP-K-Ras12V, 3 min treatment, 10 min washout): reversible
association of GFP-K-Ras / GFP-H-Ras with mitochondria (GFP-K-Ras; MDCK cell lines stably expressing at endogenous levels, MitoTracker Red): stimulated rapid association of GFP-K-Ras but not GFP-H-Ras with mitochondria
phosphorylation of K-Ras (32P incorporation) (K-Ras): induced phosphorylation
clinical efficacy (a variety of tumors; variety of tumors): exhibited clinical efficacy
toxicity (a variety of tumors): minimal toxicity
soft agar growth induced by K-Ras12V181A ([2]; K-Ras12V181A): insensitive
K-Ras12V induced colony growth of fibroblasts in soft agar ([2]; K-Ras12V): inhibited
growth of tumors established with K-Ras12V181A transformed fibroblasts [3]: resistant
growth of tumors established with K-Ras12V transformed fibroblasts ([3]; p<0.05, ANOVA): sensitive

C=C1[C@@H](O)[C@@H]2O[C@]3(CC[C@H](/C=C/[C@@H](C)[C@@H]4CC(C)=C[C@@]5(O[C@H](C[C@@](C)(O)C(=O)O)CC[C@H]5O)O4)O3)CC[C@H]2O[C@@H]1[C@@H](O)C[C@H](C)[C@H]1O[C@@]2(CCCCO2)CC[C@H]1C [okadaic acid]
effect on GFP-K-Ras localization (translocation/internalization) (GFP-K-Ras; 100 nM PMA with or without 500 ng/ml ionomycin, compared with bryostatin-1): induced partial internalization
